Species: Rattus norvegicus
Assay: DrugMatrix - Regimen: Daily Repeat
Type: toxicity, organism-based, Sprague-Dawley
Design: regimen Daily Repeat, gender Male, age 6-8 weeks
Settings: in vivo, po, route oral GAVAGE, vehicle .5 % CMC; for ABSOLUTE BASOPHIL / ABSOLUTE EOSINOPHIL / ABSOLUTE LYMPHOCYTE / ABSOLUTE MONOCYTE / ABSOLUTE SEGMENTED NEUTROPHIL / BASOPHIL / EOSINOPHIL / ERYTHROCYTE COUNT / HEMATOCRIT / HEMOGLOBIN / LEUKOCYTE COUNT / LYMPHOCYTE / MEAN CORPUSCULAR HEMOGLOBIN / MEAN CORPUSCULAR HEMOGLOBIN CONCENTRATION / MEAN CORPUSCULAR VOLUME / MONOCYTE / NEUTROPHIL / NUCLEATED RED BLOOD CELLS / PLATELET COUNT: tissue Blood; for ALANINE AMINOTRANSFERASE / ALBUMIN / ALKALINE PHOSPHATASE / ASPARTATE AMINOTRANSFERASE / BLOOD UREA NITROGEN / CARBON DIOXIDE / CHLORIDE / CHOLESTEROL / CREATINE PHOSPHOKINASE / CREATININE / GLUCOSE / LACTATE DEHYDROGENASE / LIPASE / PHOSPHORUS / POTASSIUM / SODIUM / TOTAL BILIRUBIN / TOTAL PROTEIN / URIC ACID: tissue Plasma
[1] = 0 mg/kg, 72 h, dose level Control, time 3 day
[2] = 0 mg/kg, 120 h, dose level Control, time 5 day
[3] = 59 mg/kg, 72 h, dose level Low, time 3 day
[4] = 59 mg/kg, 120 h, dose level Low, time 5 day

Cc1c(-c2ccccc2)oc2c(C(=O)OCCN3CCCCC3)cccc2c1=O [FLAVOXATE]
ABSOLUTE BASOPHIL [1]: 0 CELLS/uL | ABSOLUTE EOSINOPHIL [1]: 32.5 CELLS/uL | ABSOLUTE LYMPHOCYTE [1]: 13494.17 CELLS/uL | ABSOLUTE MONOCYTE [1]: 474 CELLS/uL | ABSOLUTE SEGMENTED NEUTROPHIL [1]: 1932.67 CELLS/uL | BASOPHIL [1]: 0% | EOSINOPHIL [1]: 0.17% | ERYTHROCYTE COUNT [1]: 5.45 x10E6/uL | HEMATOCRIT [1]: 34.32% | HEMOGLOBIN [1]: 13.82 G/DL | LEUKOCYTE COUNT [1]: 15.93 x10E3/uL | LYMPHOCYTE [1]: 84.83% | MEAN CORPUSCULAR HEMOGLOBIN [1]: 25.38 pg | MEAN CORPUSCULAR HEMOGLOBIN CONCENTRATION [1]: 40.27 G/DL | MEAN CORPUSCULAR VOLUME [1]: 63.05 fL | MONOCYTE [1]: 3% | NEUTROPHIL [1]: 12% | NUCLEATED RED BLOOD CELLS [1]: 0.67 /100WBC | PLATELET COUNT [1]: 1188.5 x10E3/uL | ALANINE AMINOTRANSFERASE [1]: 54.83 u/L | ALBUMIN [1]: 4.22 G/DL | ALKALINE PHOSPHATASE [1]: 427.67 u/L | ASPARTATE AMINOTRANSFERASE [1]: 86.5 u/L | BLOOD UREA NITROGEN [1]: 15.33 mg/dL | CARBON DIOXIDE [1]: 24.83 mmol/L | CHLORIDE [1]: 102.33 MEQ/L | CHOLESTEROL [1]: 71.67 mg/dL | CREATINE PHOSPHOKINASE [1]: 442.5 u/L | CREATININE [1]: 0.19 mg/dL | GLUCOSE [1]: 160.67 mg/dL | LACTATE DEHYDROGENASE [1]: 236.5 u/L | LIPASE [1]: 9 u/L | PHOSPHORUS [1]: 11.97 mg/dL | POTASSIUM [1]: 6.2 MEQ/L | SODIUM [1]: 142.85 MEQ/L | TOTAL BILIRUBIN [1]: 0.2 mg/dL | TOTAL PROTEIN [1]: 5.8 G/DL | URIC ACID [1]: 1.3 mg/dL | ABSOLUTE BASOPHIL [2]: 0 CELLS/uL | ABSOLUTE EOSINOPHIL [2]: 114.5 CELLS/uL | ABSOLUTE LYMPHOCYTE [2]: 14614 CELLS/uL | ABSOLUTE MONOCYTE [2]: 173 CELLS/uL | ABSOLUTE SEGMENTED NEUTROPHIL [2]: 1048.5 CELLS/uL | BASOPHIL [2]: 0% | EOSINOPHIL [2]: 0.67% | ERYTHROCYTE COUNT [2]: 5.66 x10E6/uL | HEMATOCRIT [2]: 35.52% | HEMOGLOBIN [2]: 14.27 G/DL | LEUKOCYTE COUNT [2]: 15.95 x10E3/uL | LYMPHOCYTE [2]: 91.33% | MEAN CORPUSCULAR HEMOGLOBIN [2]: 25.23 pg | MEAN CORPUSCULAR HEMOGLOBIN CONCENTRATION [2]: 40.2 G/DL | MEAN CORPUSCULAR VOLUME [2]: 62.7 fL | MONOCYTE [2]: 1.17% | NEUTROPHIL [2]: 6.83% | NUCLEATED RED BLOOD CELLS [2]: 0.33 /100WBC | PLATELET COUNT [2]: 1229 x10E3/uL | ALANINE AMINOTRANSFERASE [2]: 58.67 u/L | ALBUMIN [2]: 4.32 G/DL | ALKALINE PHOSPHATASE [2]: 382.5 u/L | ASPARTATE AMINOTRANSFERASE [2]: 81.67 u/L | BLOOD UREA NITROGEN [2]: 17.67 mg/dL | CARBON DIOXIDE [2]: 27.17 mmol/L | CHLORIDE [2]: 102.33 MEQ/L | CHOLESTEROL [2]: 63.67 mg/dL | CREATINE PHOSPHOKINASE [2]: 227.67 u/L | CREATININE [2]: 0.23 mg/dL | GLUCOSE [2]: 155.33 mg/dL | LACTATE DEHYDROGENASE [2]: 146.5 u/L | LIPASE [2]: 10.67 u/L | PHOSPHORUS [2]: 11.93 mg/dL | POTASSIUM [2]: 6.85 MEQ/L | SODIUM [2]: 143.95 MEQ/L | TOTAL BILIRUBIN [2]: 0.18 mg/dL | TOTAL PROTEIN [2]: 6.02 G/DL | URIC ACID [2]: 1.63 mg/dL | ABSOLUTE BASOPHIL [3]: 0 CELLS/uL | ABSOLUTE EOSINOPHIL [3]: 0 CELLS/uL | ABSOLUTE LYMPHOCYTE [3]: 10292.33 CELLS/uL | ABSOLUTE MONOCYTE [3]: 303.67 CELLS/uL | ABSOLUTE SEGMENTED NEUTROPHIL [3]: 1637.33 CELLS/uL | BASOPHIL [3]: 0% | EOSINOPHIL [3]: 0% | ERYTHROCYTE COUNT [3]: 5.31 x10E6/uL | HEMATOCRIT [3]: 32.77% | HEMOGLOBIN [3]: 12.9 G/DL | LEUKOCYTE COUNT [3]: 12.23 x10E3/uL | LYMPHOCYTE [3]: 84% | MEAN CORPUSCULAR HEMOGLOBIN [3]: 24.3 pg | MEAN CORPUSCULAR HEMOGLOBIN CONCENTRATION [3]: 39.4 G/DL | MEAN CORPUSCULAR VOLUME [3]: 61.7 fL | MONOCYTE [3]: 2.67% | NEUTROPHIL [3]: 13.33% | NUCLEATED RED BLOOD CELLS [3]: 0.33 /100WBC | PLATELET COUNT [3]: 1448 x10E3/uL | ALANINE AMINOTRANSFERASE [3]: 51.33 u/L | ALBUMIN [3]: 4.17 G/DL | ALKALINE PHOSPHATASE [3]: 336.67 u/L | ASPARTATE AMINOTRANSFERASE [3]: 71.67 u/L | BLOOD UREA NITROGEN [3]: 15 mg/dL | CARBON DIOXIDE [3]: 24.33 mmol/L | CHLORIDE [3]: 101.67 MEQ/L | CHOLESTEROL [3]: 85.67 mg/dL | CREATINE PHOSPHOKINASE [3]: 168.33 u/L | CREATININE [3]: 0.14 mg/dL | GLUCOSE [3]: 167.33 mg/dL | LACTATE DEHYDROGENASE [3]: 73.67 u/L | LIPASE [3]: 9.67 u/L | PHOSPHORUS [3]: 13.13 mg/dL | POTASSIUM [3]: 6.68 MEQ/L | SODIUM [3]: 144.33 MEQ/L | TOTAL BILIRUBIN [3]: 0.2 mg/dL | TOTAL PROTEIN [3]: 5.6 G/DL | URIC ACID [3]: 1.77 mg/dL | ABSOLUTE BASOPHIL [4]: 0 CELLS/uL | ABSOLUTE EOSINOPHIL [4]: 0 CELLS/uL | ABSOLUTE LYMPHOCYTE [4]: 14413.67 CELLS/uL | ABSOLUTE MONOCYTE [4]: 41.67 CELLS/uL | ABSOLUTE SEGMENTED NEUTROPHIL [4]: 1278 CELLS/uL | BASOPHIL [4]: 0% | EOSINOPHIL [4]: 0% | ERYTHROCYTE COUNT [4]: 5.45 x10E6/uL | HEMATOCRIT [4]: 34.03% | HEMOGLOBIN [4]: 13.93 G/DL | LEUKOCYTE COUNT [4]: 15.73 x10E3/uL | LYMPHOCYTE [4]: 92% | MEAN CORPUSCULAR HEMOGLOBIN [4]: 25.57 pg | MEAN CORPUSCULAR HEMOGLOBIN CONCENTRATION [4]: 40.93 G/DL | MEAN CORPUSCULAR VOLUME [4]: 62.5 fL | MONOCYTE [4]: 0.33% | NEUTROPHIL [4]: 7.67% | NUCLEATED RED BLOOD CELLS [4]: 0 /100WBC | PLATELET COUNT [4]: 1355 x10E3/uL | ALANINE AMINOTRANSFERASE [4]: 45.67 u/L | ALBUMIN [4]: 4.07 G/DL | ALKALINE PHOSPHATASE [4]: 365.33 u/L | ASPARTATE AMINOTRANSFERASE [4]: 71.33 u/L | BLOOD UREA NITROGEN [4]: 16 mg/dL | CARBON DIOXIDE [4]: 25 mmol/L | CHLORIDE [4]: 103.33 MEQ/L | CHOLESTEROL [4]: 77 mg/dL | CREATINE PHOSPHOKINASE [4]: 183.67 u/L | CREATININE [4]: 0.19 mg/dL | GLUCOSE [4]: 155.67 mg/dL | LACTATE DEHYDROGENASE [4]: 161.33 u/L | LIPASE [4]: 9.67 u/L | PHOSPHORUS [4]: 12.93 mg/dL | POTASSIUM [4]: 6.66 MEQ/L | SODIUM [4]: 145.6 MEQ/L | TOTAL BILIRUBIN [4]: 0.17 mg/dL | TOTAL PROTEIN [4]: 5.8 G/DL | URIC ACID [4]: 1.4 mg/dL
